Measurements: ChEMBL document CHEMBL1142558, “A new polyether ladder compound produced by the dinoflagellate Karenia brevis” (J Nat Prod, 2005)

Tests used:
Gambusia affinis = test: Toxicity against Gambusia affinis assessed as time required for death at 1 ug/ml after 24 hrs; format: organism-based; details: in vivo
[1] = Displacement of [3H]PbTx3 from VSSC in Sprague-Dawley rat brain synaptosomes; format: subcellular

| SMILES | Activity (Gambusia affinis) | Ki [1] [µM] |
| --- | --- | --- |
| C=C/C=C\CC[C@H]1O[C@H]2CC[C@@]3(C)O[C@H]4[C@@H](O)C[C@@]5(C)O[C@@H](CC/C=C(C)/C(C)=C/C=O)[C@@H](C)C[C@H]5O[C@@H]4C[C@@H]3O[C@@H]2CC[C@@]1(C)O [BREVENAL] | Non-toxic | 1.85 |
| C=C(C=O)C[C@@H]1C[C@H](O)[C@]2(C)O[C@@H]3C[C@@H]4O[C@@H]5C[C@]6(C)O[C@]7(C)CC[C@@H]8O[C@@H]9C[C@]%10(C)O[C@@H]%11C(C)=CC(=O)O[C@H]%11C[C@H]%10O[C@H]9C[C@@H](C)[C@H]8O[C@H]7C[C@H]6O[C@@]5(C)C/C=C\[C@H]4O[C@H]3C[C@H]2O1 [BREVETOXIN B] | 7.5 min | – |
| C=C/C=C\CC[C@H]1O[C@H]2CC[C@@]3(C)O[C@H]4[C@@H](O)C[C@@]5(C)O[C@@H](CC/C=C(C)/C(C)=C/C(OC)OC)[C@@H](C)C[C@@H]5O[C@@H]4C[C@@H]3O[C@@H]2CC[C@@]1(C)O [BREVENAL ACETAL] | Non-toxic | 0.68 |
